“And” between values parts separate entries of the source, which are not always exact repeats. Equal entries are not always repeated.
Columns and labels:
[1] = target: L1 EN (LINE-1 retrotransposon endonuclease domain) (Homo sapiens, UniProt O00370, N5T); assay: Fluorescent oligonucleotide EN nicking activity assay; assay type: biochemical
[2] = target: T1, APE1 (Homo sapiens, UniProt P27695); assay: APE1 fluorescent oligonucleotide activity assay (abasic site substrate); assay type: biochemical; details: for APE1 percent activity, Replicate 1 / APE1 percent activity, Replicate 2 / APE1 percent activity, Replicate 3 / APE1 percent activity, average: compound at 25 μM; for APE1 percent activity, average: average of 3 replicates; for activity at 25 µM: inhibitors at 25 μM, relative to 0 μM inhibitor control, mean ± s.d., 3 independent experiments, read-out: APE1 activity (%)
T1 construct: purchased New England Biolabs (NEB) M0282S

[3] = system: substrate oligonucleotide used in the EN activity assay; assay type: binding; set-up: key to Binding Detected? (Y/N): Binding Detected? (Y/N); Binding Detected? (Y/N)
[4] = system: L1 retrotransposition; assay: HeLa dual-luciferase L1 retrotransposition assay; assay type: cell-based, human; details: for Effect on L1 retrotransposition: HeLa cells; for L1 retrotransposition, average: average of 4 replicates, Figure 4b
[5] = system: HeLa Tet-On cells; details: human, 48 h, 25 μM
[6] = [Inhibitor] 10 μM, technical replicates 1-3, Fig. 2b source data, 10 µM
[7] = [Inhibitor] 10 μM, technical replicates 1-3, Fig. 2b source data, read-out: EN activity, percent of no inhibitor control
[8] = [Inhibitor] 50 μM, technical replicates 1-3, Fig. 2b source data, 50 µM
[9] = [Inhibitor] 50 μM, technical replicates 1-3, Fig. 2b source data, read-out: EN activity, percent of no inhibitor control
[10] = [Inhibitor] 100 μM, technical replicates 1-3, Fig. 2b source data, 100 µM
[11] = [Inhibitor] 100 μM, technical replicates 1-3, Fig. 2b source data, read-out: EN activity, percent of no inhibitor control
[12] = [Inhibitor] 250 μM, technical replicates 1-3, Fig. 2b source data, 250 µM
[13] = [Inhibitor] 250 μM, technical replicates 1-3, Fig. 2b source data, read-out: EN activity, percent of no inhibitor control
[14] = [Inhibitor] 500 μM, technical replicates 1-3, Fig. 2b source data, 500 µM
[15] = [Inhibitor] 500 μM, technical replicates 1-3, Fig. 2b source data, read-out: EN activity, percent of no inhibitor control
[16] = [Inhibitor] 1000 μM, technical replicates 1-3, Fig. 2b source data, 1000 µM
[17] = [Inhibitor] 1000 μM, technical replicates 1-3, Fig. 2b source data, read-out: EN activity, percent of no inhibitor control
[18] = [Inhibitor] 2500 μM, technical replicates 1-3, Fig. 2b source data, 2500 µM
[19] = [Inhibitor] 1 μM, technical replicates 1-3, Fig. 2b source data, 1 µM
[20] = [Inhibitor] 1 μM, technical replicates 1-3, Fig. 2b source data, read-out: EN activity, percent of no inhibitor control
[21] = [Inhibitor] 5 μM, technical replicates 1-3, Fig. 2b source data, 5 µM
[22] = [Inhibitor] 5 μM, technical replicates 1-3, Fig. 2b source data, read-out: EN activity, percent of no inhibitor control
[23] = [Inhibitor] 25 μM, technical replicates 1-3, Fig. 2b source data, 25 µM
[24] = [Inhibitor] 25 μM, technical replicates 1-3, Fig. 2b source data, read-out: EN activity, percent of no inhibitor control
[25] = [Inhibitor] 750 μM, technical replicates 1-3, Fig. 2b source data, 750 µM
[26] = [Inhibitor] 750 μM, technical replicates 1-3, Fig. 2b source data, read-out: EN activity, percent of no inhibitor control

Sequence of L1 EN (LINE-1 retrotransposon endonuclease domain) (O00370 1-239 N5T): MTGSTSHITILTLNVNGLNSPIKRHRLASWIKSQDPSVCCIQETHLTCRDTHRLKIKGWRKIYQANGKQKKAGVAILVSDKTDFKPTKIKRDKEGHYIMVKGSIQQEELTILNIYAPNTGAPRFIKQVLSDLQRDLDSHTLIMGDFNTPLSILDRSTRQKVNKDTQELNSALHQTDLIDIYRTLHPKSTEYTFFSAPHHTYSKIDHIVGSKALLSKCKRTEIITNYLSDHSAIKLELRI

Row | Compound | EN activity, percent of no inhibitor control [1, 6] | remaining activity at 10 µM [1, 7] | EN activity, percent of no inhibitor control [1, 8] | remaining activity at 50 µM [1, 9] | EN activity, percent of no inhibitor control [1, 10] | remaining activity at 100 µM [1, 11] | EN activity, percent of no inhibitor control [1, 12] | remaining activity at 250 µM [1, 13] | EN activity, percent of no inhibitor control [1, 14] | remaining activity at 500 µM [1, 15] | EN activity, percent of no inhibitor control [1, 16] | remaining activity at 1000 µM [1, 17] | APE1 percent activity, Replicate 1 [2] | APE1 percent activity, Replicate 2 [2] | APE1 percent activity, Replicate 3 [2] | APE1 percent activity, average [2] | activity at 25 µM [2] | Binding Detected? (Y/N) [3] | EN activity, percent of no inhibitor control [1, 21] | EN activity, percent of no inhibitor control [1, 23] | further results
1 | O=C(O)C1CCC(Cn2c(=S)[nH]c3ccc(F)cc3c2=O)CC1 (stereo not drawn) [AD41] | 93.0871% and 88.0691% | 99.2% | 81.1063% and 95.3657% | 81.9% | 73.6781% and 70.7755% | 89.5% | 52.6672% and 53.2546% | 37.1% | 15.8485% and 15.0123% | 16.8% | 2.51% and 3.937% | 3.26% | 117.184% | 102.457% | 114.725% | 111.455% | 112 ± 7.9% | N | – | – | EN activity, percent of no inhibitor control [1, 18]: -0.5395% and 2.354% and 1.088%; EN activity, percent of no inhibitor control ([1]; [Inhibitor] 5000 μM, technical replicates 1-3, Fig. 2b source data, 5000 µM): 3.138% and -0.1325% and -0.6231%
2 | O=C(Nc1ccc(S(=O)(=O)NCc2ccco2)cc1)c1cc(NS(=O)(=O)c2cccs2)cc(NS(=O)(=O)c2cccs2)c1 [AD18] | 114.402% and 118.423% | 107% | 87.6677% and 95.4608% | 82% | 45.2675% and 31.8714% | 46.3% | -2.192% and 4.074% and 1.188% | – | 1.364% and -0.7511% and -2.792% | – | 4.465% and 5.692% | 3.32% | 95.6087% | 100.395% | 113.415% | 103.14% | 103 ± 9.2% | N | 110.276% and 111.074% | 99.7158% and 102.855% | EN activity, percent of no inhibitor control [1, 19]: 113.77% and 114.319%; remaining activity at 1 µM [1, 20]: 128%; remaining activity at 5 µM [1, 22]: 98.7%; remaining activity at 25 µM [1, 24]: 118%; Effect on L1 retrotransposition [4]: did not significantly impact retrotransposition
3 | NC[C@H]1CC[C@H](C(=O)O)CC1 [tranexamic acid, reference compound] | – | – | – | – | – | – | – | – | – | – | – | – | – | – | – | – | – | – | – | – | IC50 in the fluorescent oligonucleotide assay [1]: does not inhibit sufficiently to calculate an; inhibition at 25000 µM ([1]; 25 mM, highest soluble concentration): ~75%
4 | Cc1cc(O[C@H](C)C(=O)NC[C@H]2CC[C@H](C(=O)O)CC2)c2c3c(c(=O)oc2c1)CCC3 [AD50] | 88.1732% and 95.3255% | 89.8% | 102.098% and 94.5993% | 99.1% | 99.5828% and 92.7301% | 105% | 85.2034% and 69.8502% | 78.9% | 1.6976% and 1.409% | 1.24% | 0.8764% and -0.04895% and -0.3009% | – | 117.885% | 112.48% | 116.717% | 115.694% | 116 ± 2.8% | N | – | 105.309% and 98.5437% and 118.945% | EN activity, percent of no inhibitor control [1, 18]: 1.256% and 0.4525% and 1.333%
5 | COc1ccc(OC)c(NS(=O)(=O)c2ccc(NS(=O)(=O)c3cccc([N+](=O)[O-])c3)cc2)c1 [AD36] | – | – | – | – | 79.4211% and 84.6024% | 96.7% | 66.0801% and 55.4717% | 47.9% | 50.9528% and 49.6683% | 60.1% | 29.1344% and 22.6241% | 19.6% | 121.786% | 104.892% | 127.866% | 118.181% | 118 ± 11.9% | N | 91.0252% and 84.1869% | 101.21% and 100.403% | remaining activity at 5 µM [1, 22]: 89.6%; remaining activity at 25 µM [1, 24]: 82%; EN activity, percent of no inhibitor control [1, 25]: 44.0742% and 35.8636%; remaining activity at 750 µM [1, 26]: 31.6%; EN activity, percent of no inhibitor control ([1]; [Inhibitor] 1750 μM, technical replicates 1-3, Fig. 2b source data, 1750 µM): 17.5242% and 11.215% and 25.1816%; EN activity, percent of no inhibitor control [1, 18]: 18.2597% and 42.0507% and 24.6475%; PrestoBlue (viability), average [5]: 15.2; Percent APE1 activity, average ([2]; 250 µM, Supplementary Fig. 6b, n=3): 108.9%; Percent APE1 activity, replicates ([2]; 250 µM, Supplementary Fig. 6b, replicates 1-3): 115.202% and 104.299% and 107.269%; L1 retrotransposition, average ([4]; 0.5 μM inhibitor): 4.647; L1 retrotransposition, average ([4]; 1 μM inhibitor): 4.699; L1 retrotransposition, average ([4]; 5 μM inhibitor): 4.066; L1 retrotransposition, average ([4]; 10 μM inhibitor): 4.169; L1 retrotransposition, average ([4]; 25 μM inhibitor): 2.81; L1 retrotransposition, average ([4]; 50 μM inhibitor): 1.253; Luciferase (retrotransposition), average ([4]; Figure 4a Graph 4, 25μM, 0μM average 3.426): 1.266; Luciferase (retrotransposition), replicates ([4]; Figure 4a Graph 4, 25μM, Replicates 1-4, 0μM average 3.426): 1.765 and 0.7621 and 1.278 and 1.259; Effect on L1 retrotransposition [4]: some activity in the retrotransposition assay
6 | COc1ccc([N+](=O)[O-])cc1NC(=O)c1ccc2c(c1)N(Cc1cc(C)ccc1C)C(=O)c1ccccc1S2(=O)=O [AD34] | 61.3218% | 63.6% | 2.345% | 1.88% | -0.6009% and -1.977% (2×) | – | 6.512% | 4.89% | – | – | – | – | 115.867% | 110.244% | 115.389% | 113.833% | 114 ± 3.1% | N | 106.747% and 72.7727% (2×) | 17.0147% | EN activity, percent of no inhibitor control [1, 19]: 107.144% and 82.3328% (2×); remaining activity at 25 µM [1, 24]: 13.4%; Effect on L1 retrotransposition [4]: did not significantly impact retrotransposition
7 | Cc1ccc(NC(=O)CSc2nc(-c3ccccc3F)nc3c2Cc2c(CO)cnc(C)c2O3)cc1 [AD28] | – | – | 92.3894% and 103.331% | 89.2% | 86.184% and 81.609% | 79.1% | 59.9195% and 84.2317% and 41.5158% | – | 4.092% and 40.0005% and 32.2238% | – | 23.297% and 19.7447% | 37.6% | 117.021% | 119.222% | 118.718% | 118.32% | 118 ± 1.2% | N | 89.9598% and 81.1542% | – | EN activity, percent of no inhibitor control [1, 19]: 96.841% and 106.468%; remaining activity at 1 µM [1, 20]: 95.4%; remaining activity at 5 µM [1, 22]: 92%; EN activity, percent of no inhibitor control ([1]; [Inhibitor] 20 μM, technical replicates 1-3, Fig. 2b source data, 20 µM): 104.354% and 99.6299%; remaining activity at 20 µM ([1]; [Inhibitor] 20 μM, technical replicates 1-3, Fig. 2b source data, read-out: EN activity, percent of no inhibitor control): 87.7%; EN activity, percent of no inhibitor control [1, 25]: 45.0869% and 49.2787%; remaining activity at 750 µM [1, 26]: 52.5%

Reference: PMC11078990, “Identification and characterization of small molecule inhibitors of the LINE-1 retrotransposon endonuclease” (Nature Communications, 2024)
